# From patent US11944612B2, “Dosing regimens for 2-hydroxy-6-((2-(1-isopropyl-1H-pyrazol-5-yl)pyridin-3-yl)methoxy)benzaldehyde” (Global Blood Therapeutics, Inc., priority 2015, dated 2024)
# Assays:
# [1] = target: hemoglobin (Homo sapiens, UniProt P68871+P69905); conditions: in vitro and in vivo; cited from earlier work
# [2] = target: T1, hemoglobin (Homo sapiens, UniProt P68871+P69905, E7V); assay: Whole blood hemoximetry (oxygen equilibrium curves, % Hb modification); format: in vivo; conditions: 500 mg
# T1 construct: from tissue; host or cells: whole blood (red blood cells) of study subjects
# Description: Whole blood hemoximetry was used to measure oxygen equilibration. Blood from healthy volunteers and sickle cell disease (SCD) patients was drawn into 1.8 mL sodium citrate tubes. These samples were stored overnight at 4° C. prior to hemoximetry measurements. Based upon the hematocrit of the blood, either 50 μL or 100 μL of blood was diluted into 5 mL of 37° C. TES buffer (30 mM TES, 130 mM NaCl, 5 mM KCl, pH 7.4 at 25° C.). Diluted sample were loaded into TCS Hemox Analyzer cuvettes and oxygenated for twenty minutes using compressed air. After oxygenation, the samples were deoxygenated using nitrogen gas until the pO2 reached 1.6 millimeters of mercury (mm Hg). Data during this deoxygenation step was collected into Oxygen Equilibrium Curve (OEC) files using the TCS Hemox Analytical Software (HAS). OEC files were then analyzed to obtain the p50 (the partial pressure of oxygen at which 50% of hemoglobin in a sample is saturated with O2) and the p20 (the partial pressure of oxygen at which 20% of hemoglobin in a sample is saturated with O2). Delta p20 values (p20predose−p20sample time) were then used to calculate the % Hb Modification.
# [3] = Phase I study: whole blood and plasma pharmacokinetics of GBT440 (LC-MS-MS); format: in vivo, human; conditions: for half-life: human, whole blood, oral
# Description: (§1) The following example presents a Phase I randomised, placebo-controlled, double-blind, single and multiple ascending dose study of the tolerability and pharmacokinetics of Compound 1 (GBT440) in healthy subjects and patients with Sickle Cell Disease.
# (§2) Experimental: GBT440 • Subjects randomized 6:2 to receive daily oral dosing of GBT440 or placebo for 1 day (single dose) and up to 28 days (multiple dose)
# Analysis of whole blood was performed as follows. 50 μL of diluted whole blood was mixed with 20 μL of GBT1592 (GBT440-D7) solution in acetonitrile. 0.3 mL of 0.1M citrate buffer solution (pH 3) was added to the sample, and the sample mixed briefly by vortexing, followed by sonication for 10 minutes. 2.0 mL methyl tert butyl ether (MTBE) was added to the sample, and the sample was capped, and mixed thoroughly by vortexing at high speed for 20 minutes. The sample was then centrifuged at 3300 rpm at room temperature for 10 minutes. 0.2 mL of the clear organic layer of the centrifuged sample was then transferred to a clean 96-well 2-mL plate, and the solvent was evaporated to dryness. […] The resultant reconstituted extract was analyzed by liquid chromatography mass spectrometry (LCMS).
# For the LCMS, a Sciex API 4000 LC-MS-MS was equipped with an HPLC column. The peak area of the m/z 338.1→158.1 GBT440 product ion was measured against the peak area of the m/z 345.2→159.1 GBT1592 (GBT440-D7) internal standard product ion.
# The whole blood samples, obtained as described above, were analyzed for pharmacokinetic parameters and RBC:Plasma ratios, as follows.
# Terminal half-life and other pharmacokinetic parameters were calculated using Phoenix WinNonlin software. Apparent terminal half-life (t1/2) values were calculated as ln(2)/k, where k is the terminal elimination rate constant which is obtained by performing a linear regression on the terminal phase of a plot of the natural logarithm (ln) of concentration versus time.
# RBC:Plasma ratio was calculated using the equation below. […]
# [4] = test system: sickle cells; assay: Irreversibly sickled cells counted in peripheral blood smears; format: in vivo, human
# From the text: To quantify irreversibly sickled cells (ISCs), six different fields were randomly selected and imaged at 40× magnification per slide. Each field contained 100 to 300 cells and >500 cells (in 3 or more fields) were counted per blood smear slide. Cells that were classically sickled shape or appeared linear (with length equal to or more than 3× the width) with irregular or pointed edges were counted as sickled. Elliptical red blood cells (also appearing linear but with length approximately twice the width) with smooth rounded edges were counted as normal. In general, isolated non-discoid cells with spiky turns were counted as sickled.
# Morphological criteria for sickle cells included the following categories: (1) non-discoid irregular shaped cells with irregular or pointed edges; (2) elliptocytes with length more than twice the width and with irregular or pointed edges; and (3) irregular shaped elliptocytes.
# [5] = Phase I study: hemolysis measures / response parameters in subjects with SCD; format: in vivo, human
# From the text: as §1
# Other Outcome Measures: • Percentage of sickled cells under ex vivo conditions [Time Frame: 30 days] • Effect of GBT440 on hemolysis as measured by LDH, direct bilirubin, hemoglobin, and reticulocyte count [Time Frame: 30 days] • Change from baseline in pain as measured by visual analog scale [Time Frame: 30 days] • Change from baseline in fatigue as measured by questionnaire [Time Frame: 30 days] • Exercise capacity as measured by 6-minute walk test [Time Frame: 30 days]
# as §2
# Inclusion Criteria: • Healthy male or female of non-child bearing potential; 18 to 55 years old; are non-smokers and have not used nicotine products within 3 months prior to screening. • Male or female, 18 to 60 years old, with sickle cell disease (hemoglobin SS) not requiring chronic blood transfusion therapy; without hospitalization in 30 days before screening or receiving blood transfusion within 30 days before screening; subjects are allowed concomitant use of hydroxyurea if the dose has been stable for the 3 months prior to screening. […]
# [6] = 500 mg (Cohort 12), n = 10, subjects with SCD
# [7] = 700 mg (Cohort 11), n = 12, subjects with SCD
# [8] = 1000 mg (500 mg twice daily, Cohort 14), n = 5, subjects with SCD
smiles,measurement,setting,value
"O=Cc1ccc(CO)o1 [Compound 5HMF, 5-hydroxymethyl-2-furfuraldehyde]",hemoglobin modulation,[1],potent hemoglobin modulator both in vitro and in vivo
"CC(C)n1nccc1-c1ncccc1COc1cccc(O)c1C=O [Compound 1, 2-hydroxy-6-((2-(1-isopropyl-1h-pyrazol-5-yl)pyridin-3-yl)methoxy)benzaldehyde]",hemoglobin modification,[2]; 700 mg (FIG. 3),proportional to dose
same,shift of the oxygen equilibrium curve,"[2]; 700 mg vs placebo, SCD subjects (FIG. 3)",left shift of the oxygen equilibrium curve
same,half-life,[3]; SCD subjects,~38.4 h
same,half-life,[3]; healthy subjects,~72 h
same,increase in GBT440 with dose,[3]; single and multiple dosing,dose proportional increase
same,"Irreversibly sickled cells, change from baseline to Day 28, median",[4]; [6],−56.4%
same,percent sickle cells over time,"[4]; 500 mg, 700 mg vs placebo, 28 day dosing period (FIG. 6)",reduced sickle cells in the peripheral blood
same,"Irreversibly sickled cells, change from baseline to Day 28, median",[4]; [7],−45.9%
same,"Irreversibly sickled cells, change from baseline to Day 28, median",[4]; [8],−45.7%
same,sickle cells in peripheral blood smears,"[4]; subject treated with 700 mg, day 1 vs day 28 (FIGS. 7A-7B)",marked reduction in sickle cells
same,"Hemoglobin, change from baseline to Day 28, median",[5]; [6],0.4 g/dL
same,"Lactate dehydrogenase, change from baseline to Day 28, median",[5]; [6],−19.8%
same,"Reticulocytes, change from baseline to Day 28, median",[5]; [6],−31.2%
same,"Unconjugated bilirubin, change from baseline to Day 28, median",[5]; [6],−30.6%
same,change in hemoglobin over time,"[5]; 500 mg, 700 mg vs placebo (FIG. 4)",rapid and progressive rise in hemoglobin levels
same,percent change in reticulocytes over time,"[5]; 500 mg, 700 mg vs placebo (FIG. 5)",profound decline in reticulocytes
same,"Hemoglobin, change from baseline to Day 28, median",[5]; [7],0.7 g/dL
same,"Lactate dehydrogenase, change from baseline to Day 28, median",[5]; [7],−11.9%
same,"Reticulocytes, change from baseline to Day 28, median",[5]; [7],−37.0%
same,"Unconjugated bilirubin, change from baseline to Day 28, median",[5]; [7],−42.6%
same,"hemoglobin response, higher dose level compared to lower",[5]; 700 mg compared to 500 mg (FIG. 4),trend for a better response
same,"Hemoglobin, change from baseline to Day 28, median",[5]; [8],0.0 g/dL
same,"Lactate dehydrogenase, change from baseline to Day 28, median",[5]; [8],−12.4%
same,"Reticulocytes, change from baseline to Day 28, median",[5]; [8],−49.9%
same,"Unconjugated bilirubin, change from baseline to Day 28, median",[5]; [8],−56.3%
same,reticulocyte counts versus exposure,"[5]; higher GBT440 exposures, day 28 (FIG. 8)",more profound reduction in reticulocyte counts
same,hematologic response by Hb occupancy,[5]; participants who achieved >20% Hb occupancy compared to those who did not,improved hematologic response
